These are literature values, as cited in patent publication US20180206486A1, “Stable Agricultural Compositions” (Ceradis B.V., priority 2015, published 2018).

Data set [1] deals with downy mildew (Plasmopara viticola). The note with it: in vivo.
The test system of the next data set is rodents. The note with it: after oral and dermal administration and inhalatory exposure.

Regarding Potassium phosphite, the “effectiveness as fungicide against downy mildew” value in data set [1] was “effective”. The toxicity in rodents result with rodents was “low toxicity”.
